Consider 26 molecules from US20240216357A1 (SICHUAN HUIYU PHARMACEUTICAL CO., LTD., priority 2021, published 2024).

One data set deals with NCI-H1417 cells. Kind of data set: In vitro cell proliferation detection (CellTiter-Glo, 7 days). The format is cell-based. Particulars: Homo sapiens, 168 h; NCI-H1417 cells, 7 days, CellTiter-Glo; read-out: NCI-H1417 proliferation inhibition IC50. A general note: ATP-based viability assays read luminescence as a measure of living cells.
The target of data set [1] is voltage-gated potassium ion channel hERG (Homo sapiens (Human), UniProt Q12809). Kind of data set: hERG inhibition test (manual patch-clamp). The note with it: read-out: hERG IC50; manual patch-clamp. In general terms: hERG is a cardiac potassium channel; its block is linked to QT prolongation.
voltage-gated potassium ion channel hERG, sequence (Q12809 whole entry): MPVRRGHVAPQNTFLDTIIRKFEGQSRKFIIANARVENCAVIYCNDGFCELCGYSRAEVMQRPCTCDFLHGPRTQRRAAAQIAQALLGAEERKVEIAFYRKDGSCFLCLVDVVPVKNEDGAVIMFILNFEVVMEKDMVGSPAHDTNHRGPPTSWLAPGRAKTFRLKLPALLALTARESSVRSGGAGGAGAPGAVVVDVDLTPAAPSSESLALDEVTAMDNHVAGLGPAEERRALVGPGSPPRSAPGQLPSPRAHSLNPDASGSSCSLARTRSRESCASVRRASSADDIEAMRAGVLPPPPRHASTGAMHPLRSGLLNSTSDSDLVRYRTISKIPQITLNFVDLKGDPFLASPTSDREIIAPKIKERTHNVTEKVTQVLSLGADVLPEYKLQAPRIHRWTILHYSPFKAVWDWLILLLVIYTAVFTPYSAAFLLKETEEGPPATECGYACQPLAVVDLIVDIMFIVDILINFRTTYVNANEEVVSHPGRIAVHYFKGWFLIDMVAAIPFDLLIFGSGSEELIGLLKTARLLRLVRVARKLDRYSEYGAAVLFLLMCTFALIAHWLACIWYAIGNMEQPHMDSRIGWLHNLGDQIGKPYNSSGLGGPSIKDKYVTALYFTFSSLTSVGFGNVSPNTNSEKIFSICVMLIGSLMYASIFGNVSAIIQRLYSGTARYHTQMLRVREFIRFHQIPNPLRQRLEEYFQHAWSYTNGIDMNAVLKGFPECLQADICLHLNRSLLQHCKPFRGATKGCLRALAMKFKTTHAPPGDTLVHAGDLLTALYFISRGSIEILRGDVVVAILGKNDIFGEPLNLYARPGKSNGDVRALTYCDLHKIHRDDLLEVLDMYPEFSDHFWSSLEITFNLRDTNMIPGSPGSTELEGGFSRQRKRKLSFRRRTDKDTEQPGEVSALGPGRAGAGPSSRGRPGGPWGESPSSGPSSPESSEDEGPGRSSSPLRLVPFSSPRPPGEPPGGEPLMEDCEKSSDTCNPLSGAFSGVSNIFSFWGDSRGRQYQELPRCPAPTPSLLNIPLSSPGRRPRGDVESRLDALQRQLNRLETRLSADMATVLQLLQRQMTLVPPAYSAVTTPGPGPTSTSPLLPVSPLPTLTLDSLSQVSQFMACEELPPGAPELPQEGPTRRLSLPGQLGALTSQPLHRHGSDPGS
The next data set concerns the target LSD1 (Homo sapiens (Human), UniProt O60341). Kind of data set: LSD1 enzyme activity detection (HTRF). The format is biochemical. The note with it: HTRF, H3K4me1 substrate; read-out: Inhibition of enzymatic activity of LSD1 IC50.

Counter-ions that a name gives are not always drawn.

For the molecule `O=C(c1cc(CN[C@@H]2C[C@H]2c2ccc(F)cc2)nc(-c2ccc(-n3cccn3)cc2)n1)N1CCC(F)(F)CC1` [Example 230], the IC50 in the data set on NCI-H1417 cells was determined as 3.92 nM; in data set [1] it was 4990 nM; on LSD1, 47.9 nM.
`COc1ccc(-c2c(-c3ccc(C#N)c(F)c3)nc(N3CCC(N)CC3)n3ccnc23)cn1` [Example 121, 4-(5-(4-aminopiperidin-1-yl)-8-(6-methoxypyridin-3-yl)imidazolo [1,2-c]pyrimidin-7-yl)-2-fluorobenzonitrile]: the results for the IC50 (in the data set on NCI-H1417 cells; in data set [1]; on LSD1) were 8.38 nM, 6040 nM and 3.15 ± 1.03 nM, respectively.
As for `COc1cc(N2CCC(N)CC2)nc(-c2ccc(C#N)c(F)c2)c1-c1cc(O)c(F)c(F)c1` [Example 92, 4-(6-(4-aminopiperidin-1-yl)-3-(3,4-difluoro-5-hydroxyphenyl)-4-methoxypyridin-2-yl)-2-fluorobenzonitrile], the IC50 in the data set on NCI-H1417 cells was 8.78 nM; in data set [1], 10900 nM; at LSD1, 8.2 ± 0.1 nM.
On to `N#Cc1ccc(-c2nc(N3CCC(N)CC3)n3ccnc3c2-c2ccc(OC(F)(F)F)c(O)c2)cc1F` [Example 133, 4-(5-(4-aminopiperidin-1-yl)-8-(3-hydroxy-4-(trifluoromethoxy)phenyl)imidazolo [1,2-c]pyrimidin-7-yl)-2-fluorobenzonitrile hydrochloride], for which the IC50 in the data set on NCI-H1417 cells amounted to 1.04 nM; in data set [1], 7170 nM; at LSD1, 0.54 ± 0.32 nM.
Take `COc1cc(N2CCC(N)CC2)nc(-c2ccc(C#N)c(F)c2)c1-c1ccc(C)c(O)c1` [Example 95, 4-(6-(4-aminopiperidin-1-yl)-3-(3-hydroxy-4-methylphenyl)-4-methoxypyridin-2-yl)-2-fluorobenzonitrile hydrochloride]: the IC50 came to 0.467 nM in the data set with NCI-H1417 cells, 6920 nM in data set [1] and 0.16 ± 0.11 nM on LSD1.
For `COc1ccc(-c2c(OC3CCCC3)cc(N3CCC(N)CC3)nc2-c2ccc(C#N)c(F)c2)cc1O` [Example 105, 4-(6-(4-aminopiperidin-1-yl)-4-(cyclopentyloxy)-3-(3-hydroxy-4-methoxyphenyl)pyridin-2-yl)-2-fluorobenzonitrile], the IC50 in the data set with NCI-H1417 cells worked out at 5.45 nM; in data set [1] it was 5600 nM; on LSD1, 2.3 ± 0.04 nM.
On the same counts, the results for `CS(=O)(=O)N1CCN(C(=O)c2cc(CN[C@@H]3C[C@H]3c3ccc(F)cc3)nc(-c3ccc(-n4ccnn4)cc3)n2)CC1` [Example 228] are 4.68 nM, 7210 nM and 22.9 nM.
As for `Cc1ccc(-c2c(-c3ccc(C#N)c(F)c3)nc(N3CCC(N)CC3)n3ccnc23)cc1O` [Example 136, 4-(5-(4-aminopiperidin-1-yl)-8-(3-hydroxy-4-methylphenyl)imidazolo[1,2-c]pyrimidin-7-yl)-2-fluorobenzonitrile hydrochloride], the results for the IC50 (with NCI-H1417 cells; in data set [1]; on LSD1) were 0.176 nM, more than 30000 nM and 0.06 ± 0.02 nM, respectively.
Consider `CC(C)(O)Cc1ccc(-c2c(-c3ccc(C#N)c(F)c3)nc(N3CCC(N)CC3)n3ccnc23)c(F)c1` [Example 132, 4-(5-(4-aminopiperidin-1-yl)-8-(2-fluoro-4-(2-hydroxy-2-methylpropyl)phenyl)imidazolo[1,2-c]pyrimidin-7-yl)-2-fluorobenzonitrile hydrochloride], for which the IC50 was 11.9 nM with NCI-H1417 cells, more than 30000 nM in data set [1] and 5.62 nM on LSD1.
As for `COc1cc(N2CCC(N)CC2)nc(-c2ccc(C#N)c(F)c2)c1-c1ccc(Cl)c(O)c1` [Example 98, 4-(6-(4-aminopiperidin-1-yl)-3-(4-chloro-3-hydroxyphenyl)-4-methoxypyridin-2-yl)-2-fluorobenzonitrile hydrochloride], the IC50 in the data set on NCI-H1417 cells worked out at 0.604 nM; in data set [1] it was 5850 nM.
Regarding `O=C(c1cc(CN[C@@H]2C[C@H]2c2ccc(F)cc2)nc(-c2ccc(N3CCOCC3)cc2)n1)N1CCOCC1` [Example 245, (6-((1R,2S)-2-(4-fluorophenyl)cyclopropyl)amino)methyl)-2-(4-morpholinophenyl) pyrimidin-4-yl) (morpholino)methanone hydrochloride], the IC50 with NCI-H1417 cells was found to be 1.98 nM; at LSD1, 39.1 nM.
The matching figures for `O=C(c1cc(CN[C@@H]2C[C@H]2c2ccc(F)cc2)nc(-c2ccc(N3CCOCC3)cc2)n1)N1CCC(F)(F)CC1` [Example 244, (4,4-difluoropiperidin-1-yl)(6-(((1R,2S)-2-(4-f1uorophenyl)cyclopropyl)amino)methyl)-2-(4-morpholinophenyl) pyrimidin-4-yl)methanone hydrochloride]: 5.07 nM and 116 nM.
Consider `COc1cc(N2CCC(N)CC2)nc(-c2ccc(C#N)c(F)c2)c1-c1ccc(C(F)(F)F)c(O)c1` [Example 99, 4-(6-(4-aminopiperidin-1-yl)-3-(3-hydroxy-4-(trifluoromethyl)phenyl)-4-methoxypyridin-2-yl)-2-fluorobenzonitrile hydrochloride], for which the IC50 with NCI-H1417 cells was found to be 1.72 nM; on LSD1 it was 4.9 ± 1.2 nM.
As to `Cn1ccc(-c2cnc(N3CCC(N)CC3)c(C#N)c2-c2ccc(C#N)c(F)c2)cc1=O` [Example 83, 6-(4-aminopiperidin-1-yl)-4-(4-cyano-3-fluorophenyl)-1′-methyl-2′-oxo-1′,2′-dihydro-[3,4′-bipyridine]-5-carbonitrile hydrochloride], the IC50 in the data set with NCI-H1417 cells is 630 nM; on LSD1 it was 35.4 nM.
Consider `COc1cc(N2CCC(N)CC2)nc(-c2ccc(C#N)c(F)c2)c1-c1ccc(C#N)c(F)c1` [Example 94, 4,4′-(6-(4-aminopiperidin-1-yl)-4-methoxypyridin-2,3-diyl)bis(2-fluorobenzonitrile)], for which the figures for the IC50 with NCI-H1417 cells and on LSD1 were 104 nM and 24.9 nM, respectively.
For `Cc1ccc(-c2c(-c3ccc(C#N)c(F)c3)nc(N3CC4CC3CC4N)n3ccnc23)cc1O` (stereo not shown) [Example 160, 4-(5-(5-amino-2-azadicyclo[2. 2.1]heptan-2-yl)-8-(3-hydroxy-4-methylphenyl)imidazolo[1,2-c]pyrimidin-7-yl)-2-fluorobenzonitrile hydrochloride], the IC50 in the data set on NCI-H1417 cells turned out to be 0.29 nM; on LSD1, 1.2 ± 0.2 nM.
Regarding `CNC1CCN(c2cc(O)c(-c3ccc(OC)c(F)c3)c(-c3ccc(C#N)c(F)c3)n2)CC1` [Example 55, 2-fluoro-4-(3-(3-fluoro-4-methoxyphenyl)-4-hydroxy-6-(4-(methylamino)piperidin-1-yl)pyridin-2-yl)benzonitrile], the IC50 in the data set with NCI-H1417 cells was 10 ± 2.9 nM; at LSD1, 2.3 ± 0.7 nM.
The matching figures for `COc1ccc(-c2nc(CN[C@@H]3C[C@H]3c3ccc(F)cc3)cc(C(=O)N3CCN(S(C)(=O)=O)CC3)n2)cc1F` [Example 225]: 27.8 nM and 52.1 nM.
On the same counts, the results for `COc1ccc(-c2c(-c3ccc(C#N)c(F)c3)nc(N3CCC(N)CC3)c3[nH]ncc23)cc1O` [Example 287, 4-(7-(4-aminopiperidin-1-yl)-4-(3-hydroxy-4-methoxyphenyl)-1H-pyrazolo[3,4-c]pyridin-5-yl)-2-fluorobenzonitrile hydrochloride] are 5.97 nM and 0.265 nM.
On to `CN(CCCN)c1cc(O)c(-c2ccc(Cl)c(O)c2)c(-c2ccc(C#N)c(F)c2)n1` [Example 61, 4-(6-((3-aminopropyl)(methyl)amino)-3-(4-chloro-3-hydroxyphenyl)-4-hydroxypyridin-2-yl)-2-fluorobenzonitrile], for which the IC50 with NCI-H1417 cells came to 387 nM; on LSD1, 26.4 nM.
On to `CN[C@@H]1CCCN(c2nccn3c(-c4ccc(C)cc4)c(-c4ccc(C#N)cc4)cc23)C1` [Example 189, (R)-4-(1-(3-(methylamino)piperidin-1-yl)-6-(p-tolyl)pyrrolo[1,2-a]pyrazin-7-yl)benzonitrile hydrochloride], for which the IC50 worked out at 4.04 nM in the data set on NCI-H1417 cells and 0.29 ± 0.11 nM on LSD1.
The matching figures for `COc1ccc(-c2c(-c3ccc(C#N)c(F)c3F)nc(N3C4CCC3CC(N)C4)n3ccnc23)cc1F` (stereo not shown) [Example 183, 4-(5-(3-amino-8-azabicyclo[3.2.1]octane-8-yl)-8-(3-fluoro-4-methoxyphenyl)imidazolo[1,2-c]pyrimidin-7-yl)-2,3-difluorobe nzonitrile hydrochloride]: 6.28 nM and 3.6 ± 0.6 nM.
In the case of `COc1ccc(-c2c(-c3ccc(C#N)nc3)nc(N3C4CCC3CC(N)C4)n3ccnc23)cc1F` (stereo not shown) [Example 176, 5-(5-(3-amino-8-azabicyclo[3.2.1]octane-8-yl)-8-(3-fluoro-4-methoxyphenyl)imidazolo[1,2-c]pyrimidin-7-yl) picolinonitrile hydrochloride], the IC50 with NCI-H1417 cells was determined as 21.6 nM; on LSD1, 16.8 nM.
As to `Cc1noc2cc(-c3c(O)cc(N4C5CCC4CC(N)C5)nc3-c3ccc(C#N)c(F)c3)c(F)cc12` (stereo not shown) [Example 24, 4-(6-(3-amino-8-azabicyclo[3.2.1]octane-8-yl)-3-(5-fluoro-3-methylbenzo[d]isoxazol-6-yl)-4-hydroxypyridin-2-yl)-2-fluorobenzonitrile], the IC50 is 252 nM in the data set on NCI-H1417 cells and 21.5 ± 20.5 nM on LSD1.
On the same counts, the results for `CC(C)(O)Cn1ncc2cc(F)c(-c3sc(C(=O)N4C5CCC4CC(N)C5)cc3-c3ccc(C#N)c(F)c3)cc21` (stereo not shown) [Example 217, 4-(5-(3-amino-8-azabicyclo [3.2.1]octan-8-carbonyl)-2-(5-fluoro-1-(2-hydroxy-2-methylpropyl)-1H-indazol-6-yl)thiophen-3-yl)-2-fluorobenzonitrile hydrochloride] are 67.8 nM and 12.8 nM.
Turning to `Cc1noc2cc(-c3c(-c4ccc(C#N)c(F)c4)nc(N(C)CCCN)n4ccnc34)c(F)cc12` [Example 150], the IC50 in the data set with NCI-H1417 cells is 31.2 nM; on LSD1 it was 20.3 nM.
